Test results published in EP4751721A1, “COMPOSITION CONTAINING NOVEL COMPOUND FOR PREVENTING OR TREATING PARKINSON'S DISEASE” (PRG S&Tech Inc., priority 2023, dated 2025).

Legend:
Syn-A53T = biological target: T1, Syn-A53T (Homo sapiens, UniProt P37840, A53T); test: Immunofluorescence staining of aggregated synuclein in transfected cells; format: cell-based; details: Syn-A53T vector 24 h, compound 5 µM for 24 h, pan-Syn antibody, FIG. 1C
T1 construct: FLAG; host or cells: SK-N-SH

normal human fibroblasts = test: Cell viability (MTT assay) in normal human fibroblasts; format: cell-based; details: 48 h; for cytotoxic effects (cell viability, MTT): normal human fibroblasts, FIG. 3
Method: SK-N-SH cells were purchased from the Korean Cell Line Bank (KCLB, Seoul, South Korea) and maintained in MEM medium containing 10% fetal bovine serum, 1% antibiotics, 25 mM HEPES, and 300 mg/L L-Glu. Human fibroblasts (person) were obtained from Coridll Cell Repositories (New Jersey, USA) and maintained in EMEM containing 15% FBS and 2 mM glutamine, along with 26 mM HEPES without antibiotics.
To investigate cell viability, cells were treated with chemicals (PRG-A compound) for 48 h. Then, the cells were incubated with 0.5 mg/ml 3-(4,5-dimethylthiazol-2-yl)-2,5-diphenyltetrazolium bromide (MTT) solution (475989; Merck, Darmstadt, Germany) at 37°C for 4 h. After removing the excess solution and washing with PBS, the precipitated substances were dissolved in 200 µl of DMSO and quantified by measuring the absorbance at 540 nm.
Lastly, to determine the toxicity of PRG-A compounds, normal human fibroblasts and neuroblastoma cells (SK-N-SH) were cultured with each compound for 48 h, and cell viability was measured via the MTT assay. The effect on survival rates of neuronal cells and normal fibroblasts was identified (FIG. 3).

Syn^A53T-Tg mice = test: In vivo treatment and histological analysis in Parkinson's disease (PD) mouse model
Method: Experiments were conducted in approved facility of Association for Assessment and Accreditation of Laboratory Animal Care in accordance with animal policies approved by Pusan National University. B6.Cg-Tg (Prnp-SNCAA53T)/J mice were obtained from Jackson Laboratory (Stock No: 006823). All mice were maintained under temperature- and light-controlled conditions (20-23°C, 12 h-12 h light/dark cycle) and provided with autoclaved food and water.
24 week-old Syn^A53T-Tg mice were administered vehicle (DMSO), PRG-A-03, and PRG-A-04 intraperitoneally twice a week for 24 to 26 weeks. Control mice were treated under the same conditions. Mice were sacrificed at 48-52 weeks of age for histological analysis. After cardiac perfusion with 4% paraformaldehyde, the brains were dissected and embedded in paraffin blocks according to standard tissue processing procedures. Embedded tissue ([…]) was cut into 5 µm sections using a tissue sectioner (Leica microtome) and transferred to adhesive-coated slides (Marienfeld laboratory glassware, Germany). For histological pathologic analysis of Syn^A53T-Tg mice, immunohistochemistry (IHC) using a dopaminergic neuronal marker (Tyrosine Hydroxylase) was performed after deparaffinization and rehydration. To monitor dopaminergic neurons by immunofluorescence (IF), dissected brains were embedded in agarose holders and sectioned with a vibratome. Thinly sliced tissues were treated with a blocking solution (normal donkey serum diluted 1:500 in 0.1% Triton X-100 PBS) for 1 h. Cells were incubated with anti-TH antibody (diluted 1:500) overnight at 4°C. Finally, cells were incubated with FITC-conjugated secondary antibody at 4°C for 2 h. Cells were washed three times with PBS, and coverslips were mounted using mounting solution (H-5501, Vector Laboratories), followed by analysis by fluorescence microscopy (Zeiss). […]

[1] = biological target: T2, synuclein mutant (Syn-A53T) (Homo sapiens, UniProt P37840, A53T); test: Insoluble/soluble synuclein fractionation by Western blot in SK-N-SH cells transfected with MT-Syn (Syn-A53T); format: cell-based; details: treated for 24 h, pellet (insoluble) vs supernatant, FIG. 1B
T2 construct: FLAG; host or cells: SK-N-SH
Method: For SDS-PAGE, proteins were extracted from cells using RIPA buffer (50 mM Tris-Cl, pH 7.5, 150 mM NaCl, 1% NP-40, 0.1% SDS, and […] sodium deoxycholate). Samples were separated by SDS-PAGE and transferred to a PVDF membranes. The blotted membrane was blocked with 3% skim milk containing TBST buffer for 1 h and incubated with specific antibodies. Reacted antibodies were detected by ECL and X-ray film exposure. The antibody used in this experiment was pan-Syn (GTX112799), purchased from Genetex (California, USA). Actin antibody (66009-1-lg) and α-tubulin antibody (66240-1-lg) were obtained from Proteintech (Rosemont, IL, USA). Anti-FLAG (Sigma; F3165) from Sigma Aldrich (St, Louis, MO, USA) was used as a […], and HRP-conjugated goat anti-mouse, goat anti-rabbit, and mouse anti-goat antibodies (Pierce, Thermo Fisher Scientific, Inc., Rockford, IL, USA) were used. FLAG-Syn-WT and MT vectors were transfected into SK-N-SH cells for 24 h. […]
To identify the effect of the PRG-A compound on alpha-synuclein aggregation, the inventors transfected the FLAG-Syn-A30P vector into SK-N-SH cells for 24 h. […] Expression of synuclein was observed under a fluorescence microscope with a pan-Syn antibody (white arrow; high intensity of Syn).

With `CC1(C)Oc2cc3oc(=O)ccc3cc2C[C@@H]1O` [Chem-001, decursinol] the “Aggregated synuclein (immunofluorescence)” value (Syn-A53T) was “marginal effects”.
With `COc1cc(/C=C/C(=O)O[C@H]2Cc3cc4ccc(=O)oc4cc3OC2(C)C)ccc1O` [PRG-A-01, (S)-8,8-dimethyl-2-oxo-7,8-dihydro-2H,6H-pyrano[3,2-g]chromen-7-yl (E)-3-(4-hydroxy-3-methoxyphenyl)acrylate] the “cytotoxic effects (cell viability, MTT)” value (normal human fibroblasts) was “did not exhibit cytotoxic effects”.
In the case of `COc1cc(/C=C/CO[C@H]2Cc3cc4ccc(=O)oc4cc3OC2(C)C)ccc1O` [PRG-A-02, (S,E)-7-((3-(4-hydroxy-3-methoxyphenyl)allyl)oxy)-8,8-dimethyl-7,8-dihydro-2H,6H-pyrano[3,2-g]chromen-2-one], the “cytotoxic effects (cell viability, MTT)” value (normal human fibroblasts) is reported as “did not exhibit cytotoxic effects”.
`CC1(C)Oc2cc3oc(=O)ccc3cc2C[C@@H]1OC(=O)/C=C/c1ccc(F)cc1` [PRG-A-03, (S)-8,8-dimethyl-2-oxo-7,8-dihydro-2H,6H-pyrano[3,2-g]chromen-7-yl (E)-3-(4-fluorophenyl)acrylate] was tested, and the “phosphorylation of Tau in brain tissue” value (Syn^A53T-Tg mice; brain tissue of Syn-A53T Tg, FIG. 2C) was “suppresses phosphorylation of Tau”, the “Dopaminergic neuron markers (Tyrosine Hydroxylase, TH) in the substantia nigra (SN), IHC” value (Syn^A53T-Tg mice; intraperitoneal, 20 mg/kg or 40 mg/kg, 24 to 26 weeks, FIG. 2B) was “maintained” and the “impact on cell viability (MTT)” value (normal human fibroblasts; high doses (50 and 100 µM), cell type not given) was “low impact on cell viability”.
For `COc1cc(/C=C/CO[C@H]2Cc3cc4ccc(=O)oc4cc3OC2(C)C)ccc1[N+](=O)[O-]` [PRG-A-04, (S,E)-7-((3-(3-methoxy-4-nitrophenyl)allyl)oxy)-8,8-dimethyl-7,8-dihydro-2H,6H-pyrano[3,2-g]chromen-2-one], the insoluble synuclein [1] was “reduce insoluble synuclein in a dose-dependent manner”, the “loss of dopaminergic neurons in the SN by IF staining using TH” value (Syn^A53T-Tg mice; intraperitoneal, 20 mg/kg or 40 mg/kg, 24 to 26 weeks, FIG. 2D) was “prevents the loss of dopaminergic neurons” and the “cytotoxic effects (cell viability, MTT)” value (normal human fibroblasts) was “did not exhibit cytotoxic effects”.
